From ChEMBL document CHEMBL3885881, “DrugMatrix”

Species: Rattus norvegicus
Assay: DrugMatrix - Regimen: Daily Repeat
Format: toxicity, organism-based, Sprague-Dawley
Parameters: regimen Daily Repeat, gender Male, age 6-8 weeks
Conditions: in vivo, po, route oral GAVAGE, […]; for ABSOLUTE BASOPHIL / ABSOLUTE EOSINOPHIL / ABSOLUTE LYMPHOCYTE / ABSOLUTE MONOCYTE / ABSOLUTE SEGMENTED NEUTROPHIL / BASOPHIL / EOSINOPHIL / ERYTHROCYTE COUNT / HEMATOCRIT / HEMOGLOBIN / LEUKOCYTE COUNT / LYMPHOCYTE / MEAN CORPUSCULAR HEMOGLOBIN / MEAN CORPUSCULAR HEMOGLOBIN CONCENTRATION / MEAN CORPUSCULAR VOLUME / MONOCYTE / NEUTROPHIL / NUCLEATED RED BLOOD CELLS / PLATELET COUNT: tissue Blood; for ALANINE AMINOTRANSFERASE / ALKALINE PHOSPHATASE / ASPARTATE AMINOTRANSFERASE / BLOOD UREA NITROGEN / CARBON DIOXIDE / CHLORIDE / CHOLESTEROL / CREATINE PHOSPHOKINASE / CREATININE / GLUCOSE / LACTATE DEHYDROGENASE / LIPASE / PHOSPHORUS / POTASSIUM / SODIUM / TOTAL BILIRUBIN / TOTAL PROTEIN / URIC ACID: tissue Plasma
[1] = 22 mg/kg, 120 h, dose level High, time 5 day
[2] = 72 h, dose 2.5 mg/Kg, dose level Low, time 3 day
[3] = 120 h, dose 2.5 mg/Kg, dose level Low, time 5 day

## OCCN1CCN(CCCN2c3ccccc3Sc3ccc(C(F)(F)F)cc32)CC1 [FLUPHENAZINE]
[1]
  ABSOLUTE BASOPHIL: 0 CELLS/uL
  ABSOLUTE EOSINOPHIL: 112 CELLS/uL
  ABSOLUTE LYMPHOCYTE: 12846 CELLS/uL
  ABSOLUTE MONOCYTE: 29.33 CELLS/uL
  ABSOLUTE SEGMENTED NEUTROPHIL: 379.33 CELLS/uL
  BASOPHIL: 0%
  EOSINOPHIL: 1.33%
  ERYTHROCYTE COUNT: 6.02 x10E6/uL
  HEMATOCRIT: 36.97%
  HEMOGLOBIN: 14.2 G/DL
  LEUKOCYTE COUNT: 13.37 x10E3/uL
  LYMPHOCYTE: 95%
  MEAN CORPUSCULAR HEMOGLOBIN: 23.6 pg
  MEAN CORPUSCULAR HEMOGLOBIN CONCENTRATION: 38.43 G/DL
  MEAN CORPUSCULAR VOLUME: 61.37 fL
  MONOCYTE: 0.33%
  NEUTROPHIL: 3.33%
  NUCLEATED RED BLOOD CELLS: 0 /100WBC
  PLATELET COUNT: 1170.67 x10E3/uL
  ALANINE AMINOTRANSFERASE: 39.33 u/L
  ALKALINE PHOSPHATASE: 322.67 u/L
  ASPARTATE AMINOTRANSFERASE: 67.67 u/L
  BLOOD UREA NITROGEN: 15.67 mg/dL
  CARBON DIOXIDE: 26.67 mmol/L
  CHLORIDE: 101.33 MEQ/L
  CHOLESTEROL: 61.33 mg/dL
  CREATINE PHOSPHOKINASE: 190.33 u/L
  CREATININE: 0.13 mg/dL
  GLUCOSE: 198.67 mg/dL
  LACTATE DEHYDROGENASE: 80.67 u/L
  LIPASE: 9.67 u/L
  PHOSPHORUS: 9.4 mg/dL
  POTASSIUM: 5.22 MEQ/L
  SODIUM: 144.73 MEQ/L
  TOTAL BILIRUBIN: 0.2 mg/dL
  TOTAL PROTEIN: 6.13 G/DL
  URIC ACID: 0.77 mg/dL
[2]
  ABSOLUTE BASOPHIL: 0 CELLS/uL
  ABSOLUTE EOSINOPHIL: 0 CELLS/uL
  ABSOLUTE LYMPHOCYTE: 6619.33 CELLS/uL
  ABSOLUTE MONOCYTE: 22 CELLS/uL
  ABSOLUTE SEGMENTED NEUTROPHIL: 525.33 CELLS/uL
  BASOPHIL: 0%
  EOSINOPHIL: 0%
  ERYTHROCYTE COUNT: 5.21 x10E6/uL
  HEMATOCRIT: 33.8%
  HEMOGLOBIN: 13.13 G/DL
  LEUKOCYTE COUNT: 7.17 x10E3/uL
  LYMPHOCYTE: 92.33%
  MEAN CORPUSCULAR HEMOGLOBIN: 25.2 pg
  MEAN CORPUSCULAR HEMOGLOBIN CONCENTRATION: 38.83 G/DL
  MEAN CORPUSCULAR VOLUME: 64.97 fL
  MONOCYTE: 0.33%
  NEUTROPHIL: 7.33%
  NUCLEATED RED BLOOD CELLS: 0 /100WBC
  PLATELET COUNT: 973 x10E3/uL
  ALANINE AMINOTRANSFERASE: 49.67 u/L
  ALKALINE PHOSPHATASE: 458.33 u/L
  ASPARTATE AMINOTRANSFERASE: 79.67 u/L
  BLOOD UREA NITROGEN: 13.33 mg/dL
  CARBON DIOXIDE: 33.67 mmol/L
  CHLORIDE: 99.5 MEQ/L
  CHOLESTEROL: 74 mg/dL
  CREATINE PHOSPHOKINASE: 223.67 u/L
  CREATININE: 0.14 mg/dL
  GLUCOSE: 142.33 mg/dL
  LACTATE DEHYDROGENASE: 61.33 u/L
  LIPASE: 13.67 u/L
  PHOSPHORUS: 9.77 mg/dL
  POTASSIUM: 6.34 MEQ/L
  SODIUM: 144.3 MEQ/L
  TOTAL BILIRUBIN: 0.13 mg/dL
  TOTAL PROTEIN: 5.33 G/DL
  URIC ACID: 0.6 mg/dL
[3]
  ABSOLUTE BASOPHIL: 0 CELLS/uL
  ABSOLUTE EOSINOPHIL: 0 CELLS/uL
  ABSOLUTE LYMPHOCYTE: 9833.67 CELLS/uL
  ABSOLUTE MONOCYTE: 155 CELLS/uL
  ABSOLUTE SEGMENTED NEUTROPHIL: 711.33 CELLS/uL
  BASOPHIL: 0%
  EOSINOPHIL: 0%
  ERYTHROCYTE COUNT: 5.5 x10E6/uL
  HEMATOCRIT: 35.1%
  HEMOGLOBIN: 13.53 G/DL
  LEUKOCYTE COUNT: 10.7 x10E3/uL
  LYMPHOCYTE: 91.67%
  MEAN CORPUSCULAR HEMOGLOBIN: 24.63 pg
  MEAN CORPUSCULAR HEMOGLOBIN CONCENTRATION: 38.57 G/DL
  MEAN CORPUSCULAR VOLUME: 63.83 fL
  MONOCYTE: 1%
  NEUTROPHIL: 7.33%
  NUCLEATED RED BLOOD CELLS: 0 /100WBC
  PLATELET COUNT: 1129.67 x10E3/uL
  ALANINE AMINOTRANSFERASE: 57 u/L
  ALKALINE PHOSPHATASE: 337 u/L
  ASPARTATE AMINOTRANSFERASE: 75 u/L
  BLOOD UREA NITROGEN: 15 mg/dL
  CARBON DIOXIDE: 28 mmol/L
  CHLORIDE: 99 MEQ/L
  CHOLESTEROL: 72 mg/dL
  CREATINE PHOSPHOKINASE: 195.33 u/L
  CREATININE: 0.18 mg/dL
  GLUCOSE: 180 mg/dL
  LACTATE DEHYDROGENASE: 77.33 u/L
  LIPASE: 10.67 u/L
  PHOSPHORUS: 9.47 mg/dL
  POTASSIUM: 4.99 MEQ/L
  SODIUM: 144.87 MEQ/L
  TOTAL BILIRUBIN: 0.23 mg/dL
  TOTAL PROTEIN: 6.1 G/DL
  URIC ACID: 0.5 mg/dL
